In patent publication US5514662A, “Use of amphotericin B derivatives as protease inhibitors” (priority 1991, dated 1996):
Like-named read-outs stand apart in the source and are kept apart here. Blank lines part the entries; values can stand above or below the molecule they belong to.

How the values were obtained:
trypsin = target: T1, trypsin (Bos taurus, UniProt P00760); assay: Inhibition of trypsin; format: biochemical
T1 sequence (P00760 24-246): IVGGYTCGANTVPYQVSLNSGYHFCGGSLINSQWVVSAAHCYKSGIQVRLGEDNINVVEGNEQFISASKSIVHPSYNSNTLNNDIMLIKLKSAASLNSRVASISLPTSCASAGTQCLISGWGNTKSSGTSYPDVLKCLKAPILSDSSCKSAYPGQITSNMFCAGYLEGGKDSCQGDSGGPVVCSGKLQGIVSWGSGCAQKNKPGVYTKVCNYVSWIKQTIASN

HIV-1 [1] = conditions: T cells infected in vitro; cited from earlier work
HIV-1 [2] = conditions: cited from earlier work
HIV = conditions: cited from earlier work
HRV14 = assay: Cytopathogenic effect of HRV14 in HeLa-Ohio cells; format: cell-based; conditions: 0.03 to 100 μM, added 1 hour after infection
Protocol: HeLa-Ohio cells cultured until they have become confluent, are infected with a suspension of HRV14 virus. The cytopathogenic effect of the virus is evaluated by staining the cells with a 0.5% solution of crystal violet and 20% of methanol; after rinsing the plates with water, the optical density is read at 550 nm.
For the rest of the experiment, the cells are infected with a viral suspension with a titre such that 50% of the cells are killed after 3 days on control cells not receiving any treatment. 1 hour after the infection, the test product (AmB or DABF-AmB) is added at concentrations ranging from 0.03 to 100 μM. The percentage inhibition of the cytopathogenic effect is determined as follows:
OD (treated infected cells)-OD (infected cells)!
OD (healthy cells)-OD (infected cells)!
The effect of the addition of DABF-AmB was tested at various times: preincubation of the cells with DABF-AmB before the viral infection; addition of DABF-AmB at the time of the infection; addition of DABF-AmB after the infection, during the period of viral proliferation.

[3] = Cytotoxicity in HeLa-Ohio cells; format: cell-based, human; conditions: human, hela-ohio cells; read-out: concentration above which cytotoxic
[4] = test system: DNA and RNA viruses containing a lipid envelope; conditions: in vitro; cited from earlier work
[5] = patients; cited from earlier work
[6] = read-out: % inhibition of trypsin relative to a control without inhibitor

Molecule: COC(=O)[C@H]1[C@@H]2C[C@@H](O[C@@H]3O[C@H](C)[C@@H](O)[C@H](N)[C@@H]3O)/C=C/C=C/C=C/C=C/C=C/C=C/C=C/[C@H](C)[C@@H](O)[C@@H](C)[C@H](C)OC(=O)C[C@H](O)C[C@H](O)CC[C@@H](O)[C@H](O)C[C@H](O)C[C@](O)(C[C@@H]1O)O2 [AME, methyl ester of amphotericin B]
- inhibition at 1 µM (trypsin; [6]): ~10%
- inhibition of cell death and of viral expression (HIV-1 [1]): inhibitors of cell death and of viral expression
- capacity of preincubated HIV-infected lymphocytes to form syncytia with uninfected cells (HIV-1 [2]; HIV-infected lymphocytes preincubated): increased
- inhibition of infection by preincubation of healthy lymphocytes prior to infection (HIV-1 [2]; lymphocytes preincubated): inhibits the infection

Molecule: Cc1cn([C@H]2C[C@H](N=[N+]=[N-])[C@@H](CO)O2)c(=O)[nH]c1=O [AZT, 3'-azido-2',3'-dideoxythymidine]
- side effects of treatment (HIV; human, in vivo): severe side effects of treatment with AZT, in particular a degeneration of bone marrow
- clinical condition of AIDS patients (HIV): improvement of the clinical condition of patients

Molecule: C[C@@H]1[C@H](O)[C@@H](C)/C=C/C=C/C=C/C=C/C=C/C=C/C=C/[C@H](O[C@@H]2O[C@H](C)[C@@H](O)[C@H](N)[C@@H]2O)C[C@@H]2O[C@](O)(C[C@@H](O)C[C@@H](O)[C@H](O)CC[C@@H](O)C[C@@H](O)CC(=O)O[C@H]1C)C[C@H](O)[C@H]2C(=O)O [AmB, amphotericin B]
- inhibition of trypsin (in words) (trypsin): a certain inhibitory activity on trypsin
- inhibition at 10 µM (trypsin; 10^-5 M): 30%
- inhibition at 1 µM (trypsin; 10^-6 M, read-out: % of inhibition of trypsin): 10%
- inhibition at 0.1 µM (trypsin; 10^-7 M): 5%
- inhibition at 1 µM (trypsin; [6]): ~10%
- antiviral activity on HRV14 (in words) (HRV14): no detectable antiviral activity
- MCC [3]: > 5 µM
- activity against enveloped DNA and RNA viruses and herpes virus strains [4]: active in vitro
- side effects of prolonged treatment [5]: frequent side effects such as fever or serious nephrotoxicity

- inhibition at 1 µM (trypsin; 1 μM, FIG. 1, read-out: % inhibition of trypsin relative to a control without inhibitor): ~40%
Molecule: C[C@@H]1[C@H](O)[C@@H](C)/C=C/C=C/C=C/C=C/C=C/C=C/C=C/[C@H](O[C@@H]2O[C@H](C)[C@@H](O)[C@H](NC(=O)C(N)CC(=O)O)[C@@H]2O)C[C@@H]2O[C@](O)(C[C@@H](O)C[C@@H](O)[C@H](O)CC[C@@H](O)C[C@@H](O)CC(=O)O[C@H]1C)C[C@H](O)[C@H]2C(=O)O (some centres unmarked) [N-aspartyl-AmB]

Molecule: CNC[C@H](O)[C@@H](O)[C@H](O)[C@H](O)CO [N-methylglucamine, reference compound]
- antiviral activity on HRV14 (in words) (HRV14): no effect on the virus

Molecule: OC[C@@H]1CC[C@H](n2cnc3c(O)ncnc32)O1 [ddI, 2',3'-dideoxyinosine]
- clinical condition of AIDS patients (HIV): improvement of the clinical condition of patients

Molecule: N N'-(2,4'-methylmorpholino)-N"-ethylguanyl!amphotericin B [MCG]
- cell-protecting properties (HIV-1 [2]): does not possess, according to this study, cell-protecting properties
- direct antiviral action (HIV-1 [2]; preincubation with the virus): has a direct antiviral action
